Measured values: ChEMBL document CHEMBL4507256 (2021)

How the values were obtained:
[1] = target: Beta-1 adrenergic receptor (Homo sapiens) (UniProt P08588); conditions: Compound concentration 10.0 uM
[2] = GPCRScan assay: inhibition of GABA/PBR; parameters: species or system Rattus norvegicus; radioligand conc. used [nm] 0.3 – 2.0, parental cells brain tissue
[3] = target: Calcium/calmodulin-dependent protein kinase kinase 1 (Homo sapiens) (UniProt Q8N5S9); conditions: Compound concentration 1000.0 nM
[4] = target: Rho-associated protein kinase 2 (Homo sapiens) (UniProt O75116); conditions: Compound concentration 1000.0 nM
[5] = target: Serine/threonine-protein kinase D3 (Homo sapiens) (UniProt O94806); conditions: Compound concentration 1000.0 nM
Chain of Serine/threonine-protein kinase D3 (Homo sapiens) (O94806 whole entry): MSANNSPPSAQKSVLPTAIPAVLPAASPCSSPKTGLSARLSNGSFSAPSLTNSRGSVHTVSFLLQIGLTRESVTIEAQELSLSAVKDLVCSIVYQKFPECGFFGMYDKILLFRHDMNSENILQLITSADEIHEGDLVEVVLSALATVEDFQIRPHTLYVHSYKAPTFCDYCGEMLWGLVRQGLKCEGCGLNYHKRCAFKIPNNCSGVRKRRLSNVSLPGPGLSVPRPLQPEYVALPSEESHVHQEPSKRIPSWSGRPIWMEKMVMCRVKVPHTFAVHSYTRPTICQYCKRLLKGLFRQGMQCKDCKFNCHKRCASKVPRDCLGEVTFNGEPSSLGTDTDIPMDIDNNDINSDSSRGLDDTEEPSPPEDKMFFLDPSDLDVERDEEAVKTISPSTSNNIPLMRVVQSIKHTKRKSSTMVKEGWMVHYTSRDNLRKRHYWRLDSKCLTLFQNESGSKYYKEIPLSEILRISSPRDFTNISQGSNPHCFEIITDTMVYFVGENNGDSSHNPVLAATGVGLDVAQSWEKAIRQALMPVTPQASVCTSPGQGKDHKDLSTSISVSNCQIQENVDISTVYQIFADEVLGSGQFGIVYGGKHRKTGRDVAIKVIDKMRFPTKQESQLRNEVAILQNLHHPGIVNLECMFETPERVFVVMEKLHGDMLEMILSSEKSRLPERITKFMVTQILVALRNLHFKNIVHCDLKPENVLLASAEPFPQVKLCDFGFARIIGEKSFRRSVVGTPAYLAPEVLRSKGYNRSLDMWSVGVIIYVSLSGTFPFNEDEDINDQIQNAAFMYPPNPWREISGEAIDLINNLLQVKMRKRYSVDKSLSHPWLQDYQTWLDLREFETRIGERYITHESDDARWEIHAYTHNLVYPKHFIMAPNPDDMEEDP

[6] = target: Misshapen-like kinase 1 (Homo sapiens) (UniProt Q8N4C8); conditions: Compound concentration 1000.0 nM
[7] = target: Calcium/calmodulin-dependent protein kinase kinase 2 (Homo sapiens) (UniProt Q96RR4); conditions: Compound concentration 1000.0 nM
[8] = target: Translocator protein (Rattus norvegicus) (UniProt P16257); assay: BZD-peripheral CEREP ligand profiling; conditions: Compound concentration 10.0 uM
Chain of Translocator protein (Rattus norvegicus) (P16257 whole entry, looked up): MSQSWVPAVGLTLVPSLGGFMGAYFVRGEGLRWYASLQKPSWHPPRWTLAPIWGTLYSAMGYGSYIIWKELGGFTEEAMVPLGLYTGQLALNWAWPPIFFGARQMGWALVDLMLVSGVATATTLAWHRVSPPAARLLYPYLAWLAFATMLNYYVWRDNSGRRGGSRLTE

[9] = target: Na+ channel (sodium channel alpha subunit family) (Homo sapiens, UniProt P35498+P35499+Q01118+Q14524+Q15858+Q99250+Q9NY46+Q9UI33+Q9UQD0+Q9Y5Y9); assay: Na+ channel CEREP ligand profiling; type: protein assay; conditions: probe veratridine (ligand); compound concentration 10 uM
[10] = target: Adenosine receptor A1 (Homo sapiens) (UniProt P30542); assay: A1 CEREP ligand profiling; conditions: Compound concentration 10.0 uM
Chain of Adenosine receptor A1 (Homo sapiens) (P30542 whole entry): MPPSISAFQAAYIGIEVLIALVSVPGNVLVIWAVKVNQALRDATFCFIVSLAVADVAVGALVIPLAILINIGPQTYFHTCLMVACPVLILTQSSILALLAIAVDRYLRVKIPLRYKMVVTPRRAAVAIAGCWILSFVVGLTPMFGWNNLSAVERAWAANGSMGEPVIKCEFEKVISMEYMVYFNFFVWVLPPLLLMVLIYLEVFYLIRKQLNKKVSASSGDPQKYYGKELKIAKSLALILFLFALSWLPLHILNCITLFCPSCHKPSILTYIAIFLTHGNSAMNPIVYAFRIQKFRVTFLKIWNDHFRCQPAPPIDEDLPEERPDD

[11] = target: 5-hydroxytryptamine receptor 1B (Homo sapiens) (UniProt P28222); assay: 5-HT1B CEREP ligand profiling; conditions: Compound concentration 10.0 uM
Chain of 5-hydroxytryptamine receptor 1B (Homo sapiens) (P28222 whole entry): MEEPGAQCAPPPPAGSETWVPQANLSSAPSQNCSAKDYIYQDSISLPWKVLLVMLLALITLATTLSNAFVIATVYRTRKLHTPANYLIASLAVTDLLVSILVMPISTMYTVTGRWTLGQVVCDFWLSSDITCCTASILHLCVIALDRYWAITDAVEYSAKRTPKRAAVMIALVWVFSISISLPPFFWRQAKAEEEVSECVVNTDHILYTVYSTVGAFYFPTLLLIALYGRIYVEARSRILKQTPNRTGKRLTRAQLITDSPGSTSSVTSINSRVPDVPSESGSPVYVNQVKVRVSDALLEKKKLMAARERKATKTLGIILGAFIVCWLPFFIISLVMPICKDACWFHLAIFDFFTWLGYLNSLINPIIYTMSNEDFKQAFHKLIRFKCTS

[12] = target: Substance-P receptor (Homo sapiens) (UniProt P25103); assay: NK1 (h) CEREP ligand profiling; conditions: Compound concentration 10.0 uM
Chain of Substance-P receptor (Homo sapiens) (P25103 whole entry): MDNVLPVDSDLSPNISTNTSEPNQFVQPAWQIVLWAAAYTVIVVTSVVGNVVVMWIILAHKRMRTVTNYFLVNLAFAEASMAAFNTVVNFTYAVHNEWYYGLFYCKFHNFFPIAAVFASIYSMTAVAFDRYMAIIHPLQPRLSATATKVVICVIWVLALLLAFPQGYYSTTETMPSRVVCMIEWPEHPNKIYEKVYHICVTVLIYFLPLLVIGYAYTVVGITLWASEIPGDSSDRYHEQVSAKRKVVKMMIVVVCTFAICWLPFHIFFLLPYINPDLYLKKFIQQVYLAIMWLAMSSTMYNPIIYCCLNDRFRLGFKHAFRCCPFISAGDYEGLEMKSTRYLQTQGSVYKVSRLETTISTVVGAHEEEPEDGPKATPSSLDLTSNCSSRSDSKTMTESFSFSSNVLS

[13] = target: Neurotensin receptor type 1 (Homo sapiens) (UniProt P30989); assay: NT1 (h) CEREP ligand profiling; conditions: Compound concentration 10.0 uM
Chain of Neurotensin receptor type 1 (Homo sapiens) (P30989 whole entry): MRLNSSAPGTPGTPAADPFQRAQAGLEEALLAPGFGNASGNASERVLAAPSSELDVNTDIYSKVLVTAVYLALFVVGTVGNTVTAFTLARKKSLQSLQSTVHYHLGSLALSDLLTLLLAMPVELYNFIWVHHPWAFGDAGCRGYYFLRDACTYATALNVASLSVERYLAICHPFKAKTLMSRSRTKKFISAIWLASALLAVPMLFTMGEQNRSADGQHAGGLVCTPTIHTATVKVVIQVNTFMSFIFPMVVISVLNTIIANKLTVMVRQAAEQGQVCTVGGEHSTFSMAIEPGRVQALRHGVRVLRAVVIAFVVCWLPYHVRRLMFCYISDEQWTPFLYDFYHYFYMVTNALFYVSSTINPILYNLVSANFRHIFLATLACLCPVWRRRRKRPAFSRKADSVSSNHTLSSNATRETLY

[14] = target: C-X-C chemokine receptor type 2 (Homo sapiens) (UniProt P25025); assay: CXCR2 (h) CEREP ligand profiling; conditions: Compound concentration 10.0 uM
[15] = target: Neuropeptide Y receptor type 1 (Homo sapiens) (UniProt P25929); assay: Y1 (h) CEREP ligand profiling; conditions: Compound concentration 10.0 uM
Chain of Neuropeptide Y receptor type 1 (Homo sapiens) (P25929 whole entry): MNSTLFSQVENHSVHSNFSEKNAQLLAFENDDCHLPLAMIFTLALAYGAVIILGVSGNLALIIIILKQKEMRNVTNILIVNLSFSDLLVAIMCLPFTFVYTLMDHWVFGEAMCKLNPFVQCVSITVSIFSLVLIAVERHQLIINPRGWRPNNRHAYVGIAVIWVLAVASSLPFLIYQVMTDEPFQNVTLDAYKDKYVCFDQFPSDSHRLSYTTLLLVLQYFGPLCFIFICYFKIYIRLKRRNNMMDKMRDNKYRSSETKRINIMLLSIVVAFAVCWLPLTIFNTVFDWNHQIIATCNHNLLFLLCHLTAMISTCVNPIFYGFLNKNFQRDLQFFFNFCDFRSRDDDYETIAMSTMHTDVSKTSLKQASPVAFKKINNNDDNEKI

[16] = target: T1, D(4) dopamine receptor (Homo sapiens) (UniProt P21917); assay: D4.4 (h) CEREP ligand profiling; conditions: Compound concentration 10.0 uM
T1 sequence (whole entry): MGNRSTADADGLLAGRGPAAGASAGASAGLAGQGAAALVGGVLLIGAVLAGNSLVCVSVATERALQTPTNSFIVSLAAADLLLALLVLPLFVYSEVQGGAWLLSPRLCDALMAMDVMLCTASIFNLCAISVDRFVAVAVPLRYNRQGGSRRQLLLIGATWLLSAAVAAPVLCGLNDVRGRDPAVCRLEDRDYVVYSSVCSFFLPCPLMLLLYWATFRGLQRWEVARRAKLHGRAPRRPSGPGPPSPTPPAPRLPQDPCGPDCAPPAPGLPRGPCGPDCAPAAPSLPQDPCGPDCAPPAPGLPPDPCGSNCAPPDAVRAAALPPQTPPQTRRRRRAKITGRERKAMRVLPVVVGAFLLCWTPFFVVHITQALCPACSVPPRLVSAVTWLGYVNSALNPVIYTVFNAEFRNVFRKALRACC

[17] = target: Melatonin receptor type 1A (Homo sapiens) (UniProt P48039); assay: MT1 (h) CEREP ligand profiling; conditions: Compound concentration 10.0 uM
[18] = target: Histamine H2 receptor (Homo sapiens) (UniProt P25021); conditions: Compound concentration 10.0 uM
Chain of Histamine H2 receptor (Homo sapiens) (P25021 whole entry): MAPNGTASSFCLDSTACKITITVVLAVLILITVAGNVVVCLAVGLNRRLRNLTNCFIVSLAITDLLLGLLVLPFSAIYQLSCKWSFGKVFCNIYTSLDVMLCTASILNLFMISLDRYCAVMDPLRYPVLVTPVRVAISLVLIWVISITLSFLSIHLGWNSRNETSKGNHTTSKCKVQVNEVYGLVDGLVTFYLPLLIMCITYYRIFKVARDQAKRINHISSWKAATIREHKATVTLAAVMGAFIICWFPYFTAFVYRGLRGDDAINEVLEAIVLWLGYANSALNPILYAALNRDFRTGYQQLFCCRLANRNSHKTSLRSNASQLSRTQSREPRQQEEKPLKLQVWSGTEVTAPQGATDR

[19] = target: GABA-A receptor; anion channel (Homo sapiens) (UniProt P14867+P47870+P18507+P28472+P48169+Q99928+Q9UN88+P34903+O00591+O14764+Q8N1C3+P18505+P78334+P47869+P31644+Q16445); assay: BZD (central) CEREP ligand profiling; type: protein-complex assay; conditions: Compound concentration 10.0 uM
[20] = target: B2 bradykinin receptor (Homo sapiens) (UniProt P30411); assay: B2 (h) CEREP ligand profiling; conditions: Compound concentration 10.0 uM
Chain of B2 bradykinin receptor (Homo sapiens) (P30411 whole entry): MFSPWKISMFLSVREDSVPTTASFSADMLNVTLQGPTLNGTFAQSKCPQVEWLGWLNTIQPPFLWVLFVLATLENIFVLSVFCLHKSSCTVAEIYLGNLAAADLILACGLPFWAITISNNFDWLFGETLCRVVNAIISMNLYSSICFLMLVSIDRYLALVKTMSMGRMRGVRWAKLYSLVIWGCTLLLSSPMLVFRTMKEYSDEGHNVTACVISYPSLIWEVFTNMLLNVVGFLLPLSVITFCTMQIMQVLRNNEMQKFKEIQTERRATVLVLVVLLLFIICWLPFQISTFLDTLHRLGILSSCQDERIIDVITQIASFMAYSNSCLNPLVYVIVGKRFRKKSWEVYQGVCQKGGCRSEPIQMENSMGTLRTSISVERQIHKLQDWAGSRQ

[21] = target: P2Y receptor (Homo sapiens) (UniProt Q9H244+P51582+P47900+P41231+Q15391+Q15077+Q96G91+Q9BPV8); assay: P2Y CEREP ligand profiling; type: protein assay; conditions: Compound concentration 10.0 uM
[22] = target: Histamine H2 receptor (Homo sapiens) (UniProt P25021); assay: H2 (h) CEREP ligand profiling; conditions: Compound concentration 10.0 uM
[23] = target: T2, 5-hydroxytryptamine receptor 3A (Homo sapiens) (UniProt P46098); assay: 5-HT3 (h) CEREP ligand profiling; conditions: Compound concentration 10.0 uM
T2 sequence (whole entry): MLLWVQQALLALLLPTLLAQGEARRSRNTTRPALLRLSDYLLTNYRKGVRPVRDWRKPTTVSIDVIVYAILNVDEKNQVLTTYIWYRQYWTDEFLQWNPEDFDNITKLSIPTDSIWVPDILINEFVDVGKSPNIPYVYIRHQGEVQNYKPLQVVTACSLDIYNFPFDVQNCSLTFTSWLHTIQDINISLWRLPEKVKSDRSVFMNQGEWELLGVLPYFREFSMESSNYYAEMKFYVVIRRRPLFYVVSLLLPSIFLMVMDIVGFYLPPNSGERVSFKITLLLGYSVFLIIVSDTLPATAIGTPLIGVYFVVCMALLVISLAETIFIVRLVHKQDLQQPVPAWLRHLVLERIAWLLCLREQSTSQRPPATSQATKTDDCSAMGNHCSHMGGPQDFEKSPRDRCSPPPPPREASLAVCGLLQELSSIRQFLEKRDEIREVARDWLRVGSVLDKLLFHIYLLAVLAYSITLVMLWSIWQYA

[24] = target: Beta-2 adrenergic receptor (Homo sapiens) (UniProt P07550); assay: beta 2 CEREP ligand profiling; conditions: Compound concentration 10.0 uM
[25] = target: Beta-1 adrenergic receptor (Homo sapiens) (UniProt P08588); assay: beta1 (h) CEREP ligand profiling; conditions: Compound concentration 10.0 uM
[26] = target: D(3) dopamine receptor (Homo sapiens) (UniProt P35462); assay: D3 (h) CEREP ligand profiling; conditions: Compound concentration 10.0 uM
[27] = target: Vasoactive intestinal polypeptide receptor 1 (Homo sapiens) (UniProt P32241); assay: VIP1 (h) CEREP ligand profiling; conditions: Compound concentration 10.0 uM
Chain of Vasoactive intestinal polypeptide receptor 1 (Homo sapiens) (P32241 whole entry): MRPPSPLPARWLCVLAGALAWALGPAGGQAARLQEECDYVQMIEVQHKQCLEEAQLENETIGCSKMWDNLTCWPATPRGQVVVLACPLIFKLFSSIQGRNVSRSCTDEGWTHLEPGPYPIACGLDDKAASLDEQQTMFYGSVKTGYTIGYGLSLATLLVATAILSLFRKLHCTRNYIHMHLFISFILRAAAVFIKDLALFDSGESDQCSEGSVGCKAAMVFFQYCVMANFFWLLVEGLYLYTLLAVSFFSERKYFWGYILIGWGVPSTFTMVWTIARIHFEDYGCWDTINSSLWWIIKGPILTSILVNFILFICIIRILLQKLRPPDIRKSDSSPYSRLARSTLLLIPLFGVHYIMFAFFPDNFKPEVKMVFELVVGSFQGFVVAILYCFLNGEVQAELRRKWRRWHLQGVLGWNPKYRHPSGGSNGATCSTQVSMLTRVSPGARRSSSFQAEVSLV

[28] = target: Sigma non-opioid intracellular receptor 1 (Homo sapiens, UniProt Q99720); assay: sigma CEREP ligand profiling; conditions: Compound concentration 10.0 uM
Chain of Sigma non-opioid intracellular receptor 1 (Q99720 whole entry): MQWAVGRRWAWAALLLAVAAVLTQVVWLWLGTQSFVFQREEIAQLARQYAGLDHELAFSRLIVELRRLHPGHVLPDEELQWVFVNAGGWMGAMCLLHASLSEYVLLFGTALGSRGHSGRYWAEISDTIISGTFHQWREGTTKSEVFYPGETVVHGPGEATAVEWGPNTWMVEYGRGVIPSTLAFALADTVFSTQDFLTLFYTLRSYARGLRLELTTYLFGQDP

Chain of Beta-1 adrenergic receptor (Homo sapiens) (P08588 whole entry, looked up): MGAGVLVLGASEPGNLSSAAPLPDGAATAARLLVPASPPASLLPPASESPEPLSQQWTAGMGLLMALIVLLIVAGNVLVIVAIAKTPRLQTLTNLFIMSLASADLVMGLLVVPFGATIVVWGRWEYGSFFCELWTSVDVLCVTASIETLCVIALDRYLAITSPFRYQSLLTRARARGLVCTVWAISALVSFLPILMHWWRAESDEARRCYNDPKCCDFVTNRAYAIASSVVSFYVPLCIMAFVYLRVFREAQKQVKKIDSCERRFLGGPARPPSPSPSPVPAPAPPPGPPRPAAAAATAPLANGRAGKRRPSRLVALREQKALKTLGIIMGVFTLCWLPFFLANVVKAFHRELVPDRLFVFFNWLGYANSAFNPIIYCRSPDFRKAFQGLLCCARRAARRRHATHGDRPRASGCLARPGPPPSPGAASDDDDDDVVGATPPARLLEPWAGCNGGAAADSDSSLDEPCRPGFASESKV

Compound: CCC(=N\O)/C(C)=C/c1ccc(F)c(C)c1 [A-226]
- inhibition [1]: 10.2%
- Ki [2]: 3.69 µM
- pKi [2]: 5.44
- residual activity [3]: 100%
- residual activity [4]: 100%
- residual activity [5]: 100%
- residual activity [6]: 92%
- residual activity [7]: 88%

Compound: CCC(=N\O)/C(C)=C/c1ccc(F)cc1 [A-079]
- inhibition [8]: 6%
- inhibition at 10 µM [9]: 17% (not active)
- inhibition [10]: 8%
- inhibition [11]: 14%
- inhibition [12]: -3%
- inhibition [13]: -5%
- inhibition [14]: -1%
- inhibition [15]: 0%
- inhibition [16]: 4%
- inhibition [17]: 31%
- inhibition [18]: 0.46%
- inhibition [19]: 1%
- inhibition [20]: 2%
- inhibition [21]: 7%
- inhibition [22]: 3%
- inhibition [23]: 0%
- inhibition [24]: -3%
- inhibition [25]: -2%
- inhibition [26]: 14%
- inhibition [27]: 0%
- inhibition [28]: -2%
